Experimental data as given in US12398141B2 (SHANGHAI SYNERGY PHARMACEUTICAL SCIENCES CO., LTD, priority 2019, dated 2025).
Values belong to the compound of their own block, whether it stands above or below them.

Assays:
[1] = Collagen-induced rheumatoid arthritis model, clinical score; type: in vivo, mice; set-up: key: 0-4 per limb by redness/deformity, max 16 per animal; conditions: clinical score 0-16 per animal, Day 0 (before modeling)
Procedure: (§1) The effects of compounds H07, H12, H14, H25, H30, H39 and H44 on rheumatoid arthritis in […] were determined after long term administration by using Lewis male […] (Beijing Vital River Laboratory Animal Technology Co., Ltd.), aged 5-6 weeks and weighing […] as test animals. The anti-inflammatory pharmacodynamics characteristic of the compounds of the invention was discussed.
(§2) A certain amount of compounds were taken and dissolved in 4% Tween 80/0.5% hydroxy propyl methyl cellulose solution. A volume of intragastric administration of mice was 10 ml/kg.
(§3) Collagen type II was dissolved in 0.1M acetic acid and kept in a 4° C. refrigerator overnight at a collagen concentration of 4 mg/mL. Same volume of incomplete Freund adjuvant (Sigma, USA) was added in collagen before injection in test, which was emulsified high speed homogenizer (30000 rpm) to prepare a collagen emulsion. This procedure was carried out on ice.
(§4) Mice were immunologically injected with the collagen emulsion by two separate times for modeling on days 1 and 7 (the day before modeling was day 0). 0.1 ml of collagen emulsion prepared as above was injected intradermally into a root of tail at a single point, and 0.2 ml was injected intradermally into back at two points. The animals were subjected to clinical score and paw volume test from day 10 to day 14 after modeling. Animals successfully modeled (average clinical score≥3 points/animal) were assigned to each administration group, with each group included 10 animals. They were administrated intragastrically with above compounds or resolvents at a dosage of 10 mg/kg twice/day, and administrated intragastrically with methotrexate (2 mg/kg, Sigma, USA) every three days, until day 27. During the test, the […] were scored twice a week, and the paw volume and body weight were measured twice.
(§5) According to the different degrees of lesions (redness and joint deformation), the scores were ranged from 0 to 4 points, with the highest score of 4 points for each limb and 16 points for each animal. Scoring standards are as follows: 0, no redness; 1, slight redness on mid legs (tarsals) or ankles; 2, slight redness from ankles to mid legs (tarsals); 3, medium redness from ankles to tarsometatarsal joints; 4, severe redness from toes or fingers to ankles or wrist joints.

Lewis male mice = test: as above; type: in vivo; set-up: key: 0-4 per limb by redness/deformity, max 16 per animal; conditions: clinical score 0-16 per animal, compounds 10 mg/kg twice/day, methotrexate 2 mg/kg every three days
Procedure: as §1, §2, §3, §4, §5

Blast T cell = test: Cell proliferation test of IL-2 stimulated Blast T cell; type: cell-based; conditions: Homo sapiens; IL-2 stimulated Blast T cell proliferation, 72 hours
Procedure: Inhibiting test of the compounds of the invention on proliferation of Blast T cell and TF-1 cell (American type culture collection) was carried out by the following method. The tested compounds […], and […] were dissolved in dimethyl sulfoxide from 0.0006 to 10 μM in quadruplicate dilutions. […] 10 μg/ml […] was added to stimulate and obtain cells with a density of 2×10^6/mL, which were incubated for 3 days. The cells were washed with phosphate buffer for three times and IL-2 (100 u/ml) was added to stimulate for 1 week. Cells were suspended using the culture medium and seeded at 5×10^4 cell/well density into 96-well plates, and incubated for 1 h with the prepared test compound or DMSO control at various concentrations from 0.0006 to 10 μM diluted by 4-fold volume. After incubation with 20 u/ml of IL-2 (50 μl/well without reference well) for 72 hours, Celltiter Glo® reagent (Promega, G7571) was added and mixed for 5 minutes, then incubated for 30 minutes at room temperature. The luminescence value was read on SpectraMax L (Molecular Device). […] The IC50 values of the corresponding compounds were then obtained by fitting by using the XLFit fitting tool in excel.

TF-1 cell = TF-1 cell proliferation test; type: cell-based; conditions: Homo sapiens, 72 h
Procedure: Inhibiting test of the compounds of the invention on proliferation of Blast T cell and TF-1 cell (American type culture collection) was carried out by the following method. The tested compounds […], and […] were dissolved in dimethyl sulfoxide from 0.0006 to 10 μM in quadruplicate dilutions. […] The luminescence value was read on Microplate Reader (Molecular Device). […] The IC50 values of the corresponding compounds were then obtained by fitting by using the XLFit fitting tool in excel.

male ICR mice = test: Carrageenan-induced paw swelling in mice; type: in vivo; conditions: 10 mg/kg intragastric
Procedure: (§6) The inhibiting effects of compounds H01, H07, H11, H12, H14, H15, H22, H25, H29, H30, H33, H39 and H44 on paw swelling in mice were determined after intragastric administration by using male ICR mice (ShanghaiSippr-BK laboratory animal Co. Ltd.), aged 8 weeks and weighing 22-24 g as test animals. The anti-inflammatory pharmacodynamics characteristic of the compounds of the invention was discussed.
A certain amount of compounds were taken and dissolved in 4% Tween 80/0.5% hydroxy propyl methyl cellulose solution. A volume of intragastric administration in mice was 10 ml/kg.
Mice were given 10 mg/kg compounds H01, H07, H11, H12, H14, H15, H22, H25, H29, H30, H33, H39, and H44 and the positive drug indomethacin (Diamond Reagent Co., Ltd., China) by intragastric administration at the dosages shown in the table below and 20 μL 1% (W/V) carrageenan was injected subcutaneously into the plantar 0.5 h later. A paw volume was measured with a paw swelling meter before and at different time points after modeling (0.5 h, 1 h and 2 h). According to the formula: paw swelling rate=(paw volume after administration−basic paw volume)/basic paw volume×100, the inhibiting effect of the compounds on paw volume was calculated. The basic paw volume was a paw volume before administration.

Sprague-Dawley (SD) mice = test: Concanavalin-induced paw swelling in mice; type: in vivo; conditions: 10 mg/kg intragastric
Procedure: as §6, with “H13,” for “H01, H07, H11, H12,”, “H09, H11” for “H15, H22, H25, H29, H30, H33, H39”, “compounds of Example 12” for “H44”, “Sprague-Dawley (SD)” for “male ICR”, “6-7” for “8”, “160-180” for “22-24”
A certain amount of compounds were taken and dissolved in 4% Tween 80/0.5% hydroxy propyl methyl cellulose solution.
Mice were given compounds H01, H07, H11, H12, H14, H15, H22, H25, H29, H30, H33, H39, and H44 and the positive drug indomethacin (Diamond Reagent Co., Ltd., China) by intragastric administration at the dosages shown in the table below and 0.1 ml 0.03% (W/V) concanavalin was injected subcutaneously into the plantar 0.5 h later. A paw volume was measured with a paw swelling meter before modeling and 1 h, 2 h, 4 h and 6 h after modeling. According to the formula: paw swelling rate=(paw volume after administration−basic paw volume)/basic paw volume×100, the inhibiting effect of the compounds on paw volume was calculated. The basic paw volume was a paw volume before administration.

[2] = Pharmacokinetic test after intragastric administration; type: in vivo; conditions: Sprague-Dawley, mouse, plasma, po, SD mice, 5 mg/kg intragastric
Procedure: Drug concentrations of compounds H01, H07, H11, H12, H14, H15, H22, H25, H29, H30, H33, H39 and H44 intragastrically administrated in plasma by using LC/MS/MS method at various time points were determined by using Sprague-Dawley (SD) […], aged 7-8 weeks and weighing […] as test animals. Pharmacokinetic behavior of the compounds of the invention in […] was studied and its pharmacokinetic characteristics were evaluated.
A certain amount of compounds was taken and dissolved in 50% PEG400/water to prepare a uniform solution.
Mice were administered intragastrically with the above compounds with a dosage of 5 mg/kg. Blood (0.2 ml) was taken from orbits before administration and 0.083 h, 0.25 h, 0.5 h, 1.0 h, 2.0 h, 4.0 h, 6.0 h, 8.0 h, 12.0 h and 24.0 h after administration. The blood was placed in anticoagulant tubes containing dipotassium ethylene glycol diethyl ether diamine tetraacetic acid, centrifugated at 6000 rpm at 4° C. for 10 minutes to separate plasma and saved at −80° C.
50 μL plasma at various time was taken and 150 μL acetonitrile solution containing internal standard tolbutamide (Sigma, USA) was added, mixed and stirred for 5 minutes. After centrifugation for 5 minutes at 12,000 rpm, 100 μL supernatant was taken, mixed with 200 μL water, following by sample injection and analysis.
Liquid chromatogram system was LC-20AD UFLC High Performance Liquid Chromatography system. Mass spectrum system was AB Sciex API4000 triple quadrupole mass spectrometer equipped with Electron Spray Ionization (ESI) (Applied Biosystems, Canada). A software for controlling liquid chromatography-mass spectrometry and quantitative analysis was Anna Rust 1.6 (Applied Biosystems, Canada). Pharmacokinetic parameters were analyzed by WinNonlin (version 5.2, Pharsight, Mountain View, […]) non-compartment model.
The test compound was dissolved in dimethyl sulfoxide to prepare a stock solution with a concentration of 1 mg/mL. The solution was diluted with 50% acetonitrile to obtain a series of standard working solutions with concentrations of 10 μg/mL, 3 μg/mL, 1 μg/mL, 0.3 μg/mL, 0.1 μg/mL, 0.03 μg/mL and 0.01 μg/mL, and a series of standard quality control solutions with concentrations of 8 μg/mL, 0.5 μg/mL, 0.03 μg/mL. 5 μL standard solution was mixed with 45 μL blank plasma substrate uniformly to obtain standard solutions of each concentration of a standard curve (1000 ng/mL, 500 ng/mL, 200 ng/mL, 100 ng/mL, 10 ng/mL, 5 ng/mL, 2 and 1 ng/mL) and quality control solutions (plasma samples: 800 ng/mL, 50 and 3 ng/mL).
Internal standard tolbutamide solid powder was dissolved in dimethyl sulfoxide to prepare a 1 mg/mL stock solution. The stock solution was diluted with 100% acetonitrile to obtain 200 ng/mL solution as a protein precipitation solution.

JAK1 = JAK1 (Homo sapiens (Human), UniProt P23458); test: JAK1 LANCE Ultra kinase assay; type: biochemical; conditions: 38 uM ATP
JAK1, sequence (P23458 whole entry): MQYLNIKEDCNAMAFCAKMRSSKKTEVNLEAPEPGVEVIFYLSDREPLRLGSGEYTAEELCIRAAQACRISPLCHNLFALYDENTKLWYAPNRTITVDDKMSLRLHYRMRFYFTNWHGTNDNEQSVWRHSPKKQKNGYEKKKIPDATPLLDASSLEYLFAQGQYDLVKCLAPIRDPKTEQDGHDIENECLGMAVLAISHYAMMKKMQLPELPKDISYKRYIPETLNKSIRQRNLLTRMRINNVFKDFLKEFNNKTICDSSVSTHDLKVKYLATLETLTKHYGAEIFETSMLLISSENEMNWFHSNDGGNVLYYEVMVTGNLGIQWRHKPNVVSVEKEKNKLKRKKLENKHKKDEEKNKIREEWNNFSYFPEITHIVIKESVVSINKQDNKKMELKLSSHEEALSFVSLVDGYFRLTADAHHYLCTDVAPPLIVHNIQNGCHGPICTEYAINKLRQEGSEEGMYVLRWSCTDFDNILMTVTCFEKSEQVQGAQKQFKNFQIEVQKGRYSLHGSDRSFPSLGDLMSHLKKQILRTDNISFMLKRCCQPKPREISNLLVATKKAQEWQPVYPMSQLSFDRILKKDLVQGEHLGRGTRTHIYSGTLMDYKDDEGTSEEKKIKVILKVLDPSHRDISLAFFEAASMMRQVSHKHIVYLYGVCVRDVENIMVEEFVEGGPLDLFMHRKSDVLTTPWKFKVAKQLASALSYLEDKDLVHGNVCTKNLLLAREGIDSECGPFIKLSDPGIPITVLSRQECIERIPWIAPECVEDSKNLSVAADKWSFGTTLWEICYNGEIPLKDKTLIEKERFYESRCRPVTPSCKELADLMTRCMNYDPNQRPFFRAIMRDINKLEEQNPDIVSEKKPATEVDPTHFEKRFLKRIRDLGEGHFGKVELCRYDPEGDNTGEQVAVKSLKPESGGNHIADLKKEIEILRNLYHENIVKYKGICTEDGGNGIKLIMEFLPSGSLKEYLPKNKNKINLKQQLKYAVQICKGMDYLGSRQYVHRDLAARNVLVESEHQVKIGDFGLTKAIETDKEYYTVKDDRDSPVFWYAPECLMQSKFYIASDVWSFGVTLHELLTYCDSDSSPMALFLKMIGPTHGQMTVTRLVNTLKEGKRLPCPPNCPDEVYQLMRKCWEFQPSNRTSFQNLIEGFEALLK
In short: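 JAK1 preincubated with compound 10 min at room temperature, then ULight-JAK-1 peptide/ATP added for 90 min at room temperature; stopped with EDTA, Eu-W1024 anti-phosphotyrosine TR-FRET read after 60 min. Inhibition normalised to DMSO and blank wells; IC50 from curve fit.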

JAK2 = JAK2 (Homo sapiens (Human), UniProt O60674); test: JAK2 LANCE Ultra kinase assay; type: biochemical; conditions: 12 uM ATP
JAK2, sequence (O60674 whole entry): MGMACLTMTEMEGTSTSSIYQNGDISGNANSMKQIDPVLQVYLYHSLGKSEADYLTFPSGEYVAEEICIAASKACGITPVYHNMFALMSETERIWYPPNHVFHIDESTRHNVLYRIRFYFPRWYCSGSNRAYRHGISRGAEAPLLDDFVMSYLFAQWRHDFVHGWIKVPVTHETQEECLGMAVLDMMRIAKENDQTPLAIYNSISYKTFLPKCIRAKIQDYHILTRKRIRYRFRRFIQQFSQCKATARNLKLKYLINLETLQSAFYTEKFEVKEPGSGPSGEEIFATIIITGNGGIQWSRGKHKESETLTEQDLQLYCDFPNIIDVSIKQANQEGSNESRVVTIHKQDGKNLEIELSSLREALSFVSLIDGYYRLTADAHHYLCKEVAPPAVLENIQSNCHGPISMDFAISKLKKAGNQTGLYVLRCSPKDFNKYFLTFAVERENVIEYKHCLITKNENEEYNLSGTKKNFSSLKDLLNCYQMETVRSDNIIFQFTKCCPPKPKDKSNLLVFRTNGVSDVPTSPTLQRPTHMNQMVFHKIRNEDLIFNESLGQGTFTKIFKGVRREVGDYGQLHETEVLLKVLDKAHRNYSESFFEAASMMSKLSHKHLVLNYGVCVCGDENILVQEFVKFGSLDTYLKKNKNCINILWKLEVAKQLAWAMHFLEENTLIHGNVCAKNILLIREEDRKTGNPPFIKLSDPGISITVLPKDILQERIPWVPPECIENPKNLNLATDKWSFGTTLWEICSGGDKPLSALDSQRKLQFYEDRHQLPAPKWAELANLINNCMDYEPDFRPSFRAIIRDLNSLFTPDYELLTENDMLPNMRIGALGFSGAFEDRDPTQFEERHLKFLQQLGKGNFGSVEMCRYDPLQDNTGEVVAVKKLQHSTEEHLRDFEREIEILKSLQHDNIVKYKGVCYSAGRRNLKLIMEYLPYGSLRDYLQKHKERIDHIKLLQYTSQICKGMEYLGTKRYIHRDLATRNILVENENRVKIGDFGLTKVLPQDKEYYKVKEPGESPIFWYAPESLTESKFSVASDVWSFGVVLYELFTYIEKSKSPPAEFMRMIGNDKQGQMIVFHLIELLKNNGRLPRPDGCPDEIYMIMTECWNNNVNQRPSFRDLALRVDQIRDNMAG

JAK3 = JAK3 (Homo sapiens (Human), UniProt P52333); test: JAK3 LANCE Ultra kinase assay; type: biochemical; conditions: 4 uM ATP
JAK3, sequence (P52333 whole entry): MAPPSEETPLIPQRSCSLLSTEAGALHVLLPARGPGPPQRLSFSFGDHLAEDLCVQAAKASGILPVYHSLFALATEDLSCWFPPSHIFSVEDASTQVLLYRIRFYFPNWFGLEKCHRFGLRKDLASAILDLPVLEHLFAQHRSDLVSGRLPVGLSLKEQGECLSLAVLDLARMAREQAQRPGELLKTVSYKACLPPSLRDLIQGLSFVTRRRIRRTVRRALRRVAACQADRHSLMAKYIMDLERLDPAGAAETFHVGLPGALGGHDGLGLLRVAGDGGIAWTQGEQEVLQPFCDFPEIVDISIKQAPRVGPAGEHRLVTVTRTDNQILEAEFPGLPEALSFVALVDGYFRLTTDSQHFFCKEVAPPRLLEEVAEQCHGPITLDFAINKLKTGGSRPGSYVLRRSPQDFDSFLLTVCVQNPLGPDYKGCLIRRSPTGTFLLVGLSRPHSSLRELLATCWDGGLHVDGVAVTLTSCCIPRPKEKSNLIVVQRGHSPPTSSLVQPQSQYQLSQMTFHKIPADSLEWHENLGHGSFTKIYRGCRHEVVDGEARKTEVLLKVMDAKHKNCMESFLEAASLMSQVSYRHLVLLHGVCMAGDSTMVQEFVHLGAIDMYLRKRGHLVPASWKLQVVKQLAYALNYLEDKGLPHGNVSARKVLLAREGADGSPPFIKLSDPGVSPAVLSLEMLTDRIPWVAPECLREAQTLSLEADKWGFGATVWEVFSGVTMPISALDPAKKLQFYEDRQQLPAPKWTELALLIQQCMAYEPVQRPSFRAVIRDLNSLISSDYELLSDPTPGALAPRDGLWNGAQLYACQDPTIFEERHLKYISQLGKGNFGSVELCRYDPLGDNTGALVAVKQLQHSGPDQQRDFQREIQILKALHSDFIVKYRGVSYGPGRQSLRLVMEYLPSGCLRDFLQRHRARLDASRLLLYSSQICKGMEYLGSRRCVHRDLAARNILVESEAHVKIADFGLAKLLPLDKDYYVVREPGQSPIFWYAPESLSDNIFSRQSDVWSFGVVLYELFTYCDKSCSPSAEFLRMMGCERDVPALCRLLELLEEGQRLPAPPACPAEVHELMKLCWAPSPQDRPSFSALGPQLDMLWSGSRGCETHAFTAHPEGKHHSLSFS

SMILES: CN(Cc1cnc2nc(N)nc(N)c2n1)c1ccc(C(=O)N[C@@H](CCC(=O)O)C(=O)O)cc1 [Methotrexate, reference compound]
Score Day 0 [1]: 0.00 ± 0.00
Score Day 13 (Lewis male mice; Day 13): 3.10 ± 0.43
Score Day 14 (Lewis male mice; Day 14): 3.60 ± 0.37
Score Day 18 (Lewis male mice; Day 18): 4.10 ± 0.47
Score Day 21 (Lewis male mice; Day 21): 6.45 ± 0.23
Score Day 25 (Lewis male mice; Day 25): 8.87 ± 0.21
Score Day 27 (Lewis male mice; Day 27): 9.65 ± 0.13

AUC(0-t) ([2]; read-out: Area under the curve (AUC0-24, ng/ml · h)): 1720 ± 220 ng·h/mL
Cmax ([2]; read-out: Plasma concentration (Cmax, ng/ml)): 578 ± 72 ng/mL
half-life ([2]; read-out: half life (T1/2, h) (converted)): 2.13 ± 0.27 h
SMILES: CC[C@@H]1CN(C(=O)NCC(F)(F)F)CC1Nc1c(C#N)cnc2[nH]ccc12 (stereo partly drawn) [Compound H01]
IC50 (Blast T cell): 0.013 µM
IC50 (TF-1 cell): 0.67 µM
Paw swelling_0.5 h (%) (male ICR mice; 0.5 h): 33.99 ± 1.69%
Paw swelling rate_1 h (%) (male ICR mice; 1 h): 40.93 ± 1.64%
Paw swelling rate_2 h (%) (male ICR mice; 2 h): 41.56 ± 5.23%
Paw swelling rate_1 h (%) (Sprague-Dawley (SD) mice; 1 h): 25.70 ± 1.50%
Paw swelling rate_2 h (%) (Sprague-Dawley (SD) mice; 2 h): 25.20 ± 2.40%
Paw swelling rate_4 h (%) (Sprague-Dawley (SD) mice; 4 h): 31.20 ± 3.10%
Paw swelling rate_6 h (%) (Sprague-Dawley (SD) mice; 6 h): 30.20 ± 3.10%

IC50 (JAK1): 3.86 nM
IC50 (JAK2): 26.5 nM
IC50 (JAK3): 156 nM
SMILES: CN(c1c(C#N)cnc2[nH]ccc12)[C@H]1C[C@@H](NS(=O)(=O)c2cccc(C(F)(F)F)c2)C1 [Compound H09, 4-{[3-(3-(trifluoromethyl)benzenesulfonamido)-cyclobutyl-1-yl]-methyl-amino}-1H-pyrrolo[2,3-b]pyridin-5-carbonitrile]
IC50 (Blast T cell): 0.036 µM
IC50 (TF-1 cell): 1.56 µM
